Holding throughout (assay): growth of human tumour cells (NCI), 48 h
Assay [1] relates to A498.
For assay [2], the system named is HCT-116.
Assay [3] concerns HOP-62.
The subject of assay [4] is Hs-578T.
The test system of assay [5] is LOX IMVI.
Assay [6] concerns M14.
The subject of assay [7] is MDA-N.
The test system of assay [8] is Malme-3M.
Assay [9] relates to NCI-H460.
Assay [10] relates to OVCAR-4.
Assay [11] has as its system OVCAR-8.
The subject of assay [12] is RPMI-8226.
Assay [13] relates to SF-268.
For assay [14], the system named is SK-MEL-28.
The test system of assay [15] is SK-MEL-2.
Assay [16] deals with SK-OV-3.
In assay [17] the test system is SNB-19.
The test system of assay [18] is TK-10.
Assay [19] concerns U-251.
Assay [20] deals with UO-31.

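Interpolation was linear, between the two tested concentrations surrounding the appropriate level; five concentrations were tested over 48 hours in 96-well plates. GI50 is the concentration that inhibits growth by half.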 Active and inactive are the calls of the source. Rule as the data show it: active = GI50 up to about 1.1 µM and inactive = higher. Where only a bound is given, the exact number is not on record here.

For `O=S(=O)(O)SCCNCCCCCC1CCCCC1`, the GI50 in assay [1] is 25.1 µM (inactive); in assay [2], 5.05 µM (inactive); in assay [3], 7.43 µM (inactive); in assay [4], 14.5 µM (inactive); in assay [5], 2.14 µM (inactive); in assay [6], 4.95 µM (inactive). The GI50 was 12.8 µM (inactive) in [7]; 18.8 µM (inactive) in assay [8]; 4.72 µM (inactive) in [9]; 17.2 µM (inactive) in assay [10]; 10 µM (inactive) in assay [11]; 17.1 µM (inactive) in assay [12]. The GI50 is 3.05 µM (inactive) in assay [13]; 4.26 µM (inactive) in [14]; 2.87 µM (inactive) in [15]; 15.7 µM (inactive) in [16]; 5.46 µM (inactive) in assay [17]; 9.38 µM (inactive) in assay [18]. The GI50 was 5.46 µM (inactive) in assay [19] and 13.9 µM (inactive) in assay [20].

With `CN1CCC2(CC1)C(=O)N(N1CCCCCC1)C(=O)N2c1ccccc1`, the GI50 is 34.7 µM (inactive) in [1]; 18.2 µM (inactive) in assay [2]; > 100 µM (inactive) in assay [3]; 42.2 µM (inactive) in assay [4]; > 100 µM (inactive) in [5]; > 100 µM (inactive) in [6]. Moreover, the GI50 in assay [7] was > 100 µM (inactive); in [8], > 100 µM (inactive); in [9] it was > 100 µM (inactive); in assay [10], > 100 µM (inactive); in [11], 78 µM (inactive); in assay [12], > 100 µM (inactive). For the same compound, the GI50 in assay [13], in assay [14], in assay [15], in [16], in assay [17] and in assay [18] was > 100 µM (inactive) throughout. Further, the GI50 in assay [19] and in assay [20] was > 100 µM (inactive) throughout.

For `c1ccc(CN[C@]23C4C5CC6C7C5C2C7[C@@](NCc2ccccc2)(C64)N3Cc2ccccc2)cc1` (stereo partly drawn), the GI50 in assay [1], in assay [2], in assay [3], in assay [4], in [5] and in assay [6] was > 100 µM (inactive) throughout. The GI50 in [7], in [8], in assay [9], in assay [10], in [11] and in assay [12] was > 100 µM (inactive) throughout. Also, the GI50 in assay [13], in assay [14], in assay [15], in [16], in assay [17] and in assay [18] was > 100 µM (inactive) each time. In addition, the GI50 in assay [19] and in assay [20] was > 100 µM (inactive) throughout.

`Cc1c2ccccc2nc2[nH]c3ccncc3c12`: the GI50 in assay [1] is 42.9 µM (inactive); in assay [3] it was 25.6 µM (inactive); in assay [4] it was 50.7 µM (inactive); in assay [5], 20.6 µM (inactive); in assay [6], 32.8 µM (inactive); in [7] it was 35 µM (inactive). In addition, the GI50 in assay [8] is 31 µM (inactive); in [9] it was 15.4 µM (inactive); in [10], 45.6 µM (inactive); in [11], 31.3 µM (inactive); in assay [12], 21 µM (inactive); in assay [13] it was 11.1 µM (inactive). Besides, the GI50 in [14] is 70.6 µM (inactive); in assay [15], 40.7 µM (inactive); in [16] it was 50 µM (inactive); in [17], 36.1 µM (inactive); in [18], 19.3 µM (inactive); in assay [19], 30.1 µM (inactive). For the same compound, the GI50 in assay [20] is 25.9 µM (inactive).

Take `Cc1nc(O)nc2nc3ccc(Cl)cc3c(NC(C)(CO)CO)c12`: the GI50 is > 100 µM (inactive) in assay [1]; 26.7 µM (inactive) in [2]; 21.2 µM (inactive) in [3]; 46.9 µM (inactive) in assay [4]; 55.6 µM (inactive) in [5]; > 100 µM (inactive) in assay [6]. The GI50 in assay [7] was 99.1 µM (inactive); in assay [8], > 100 µM (inactive); in [9] it was > 71.1 µM (inactive); in assay [10] it was > 57 µM (inactive); in assay [11] it was 72.3 µM (inactive); in assay [12], 30.8 µM (inactive). The GI50 in assay [13] is 40.6 µM (inactive); in [14], > 100 µM (inactive); in [15], > 100 µM (inactive); in [16], 36.9 µM (inactive); in assay [17], 45.2 µM (inactive); in assay [18], 41.4 µM (inactive). The GI50 in assay [19] is 36.8 µM (inactive); in [20], 4.49 µM (inactive).

For `O=C(O)CC(Cc1ccc2c(c1)OCO2)C(=O)O` (stereo not drawn), the GI50 in assay [1], in assay [2], in assay [3], in assay [4], in assay [5] and in [6] was > 100 µM (inactive) each time. In addition, the GI50 in assay [7], in [8], in assay [9], in assay [10], in [11] and in assay [12] was > 100 µM (inactive) in each case. Further, the GI50 in assay [13], in assay [14], in assay [15], in [16], in assay [17] and in assay [18] was > 100 µM (inactive) in each case. Also, the GI50 in assay [19] and in assay [20] was > 100 µM (inactive) each time.

Regarding `Clc1ccc(-c2nn3c(COc4ccc(OCc5nnc6sc(-c7ccc(Cl)cc7)nn56)c(Cl)c4)nnc3s2)cc1`, the GI50 in assay [1] was 32.7 µM (inactive); in [2], 24.8 µM (inactive); in assay [3] it was 23.2 µM (inactive); in assay [4], 30.3 µM (inactive); in [5], 17.9 µM (inactive); in [6], 31.7 µM (inactive). For the same compound, the GI50 in assay [7] is 22 µM (inactive); in assay [8], 37.3 µM (inactive); in assay [9], 52 µM (inactive); in [10], 25.5 µM (inactive); in assay [11] it was 22 µM (inactive); in [12], 24.5 µM (inactive). The GI50 in assay [13] was 15.6 µM (inactive); in assay [14], 31.3 µM (inactive); in [15] it was 53.3 µM (inactive); in assay [16], 27.3 µM (inactive); in [17] it was 14.6 µM (inactive); in assay [18] it was 17.5 µM (inactive). Also, the GI50 in [19] was 21.8 µM (inactive); in assay [20], 17.3 µM (inactive).

Consider `COC(=O)c1cc(CNCCc2c[nH]c3ccccc23)on1`, for which the GI50 in assay [1], in assay [2], in [3], in [4], in assay [5] and in assay [6] was > 100 µM (inactive) throughout. Moreover, the GI50 in assay [7] is > 100 µM (inactive); in assay [8], > 100 µM (inactive); in assay [9], > 58.1 µM (inactive); in assay [10] it was > 33.8 µM (inactive); in assay [11] it was > 100 µM (inactive); in assay [12], > 100 µM (inactive). The GI50 in [13], in assay [14], in assay [15], in [16], in assay [17] and in assay [18] was > 100 µM (inactive) each time. In addition, the GI50 in [19] and in assay [20] was > 100 µM (inactive) throughout.

Turning to `COc1cc(/C=C/C(=N\NC(N)=S)c2sc(NNC(C)=O)nc2C)ccc1O`, the GI50 in assay [1], in [2], in [3], in assay [4], in [5] and in [6] was > 100 µM (inactive) in each case. For the same compound, the GI50 in [7], in assay [8], in [9], in assay [10], in assay [11] and in [12] was > 100 µM (inactive) in each case. Also, the GI50 in assay [13], in [14], in assay [15], in assay [16], in assay [17] and in assay [18] was > 100 µM (inactive) each time. For the same compound, the GI50 in assay [19] and in assay [20] was > 100 µM (inactive) throughout.

For `Oc1cc(-c2cccc3ccccc23)nc2ncccc12`, the GI50 in assay [1] was 0.0206 µM (active); in [2], 0.0261 µM (active); in [3] it was 0.962 µM (active); in [4] it was 0.0524 µM (active); in assay [5], 0.033 µM (active); in assay [6], 0.0159 µM (active). Further, the GI50 in assay [7] was 0.00119 µM (active); in [8] it was 0.00225 µM (active); in assay [9], 0.0443 µM (active); in assay [10] it was 0.0542 µM (active); in assay [11], 0.05 µM (active); in assay [12], 0.0243 µM (active). Further, the GI50 was 0.0201 µM (active) in assay [13]; 0.0546 µM (active) in [14]; 0.0178 µM (active) in [15]; 0.0176 µM (active) in assay [16]; 0.0274 µM (active) in [17]; 0.0211 µM (active) in [19]. Further, the GI50 in assay [20] was 0.0402 µM (active).

Values taken from ChEMBL document CHEMBL1201862, “PubChem BioAssay data set” (2004).
